Assay results taken from patent US7371411B2, “Methods for production of the oxidized glutathione composite with CIS-diamminedichloroplatinum and pharmaceutical compositions based thereof regulating metabolism, proliferation, differentiation and apoptotic mechanisms for normal and transformed cells” (Novelos Therapeutics, Inc., priority 1998, dated 2008).

How the values were obtained:
stomach cancer = test: Patient with stomach cancer, peritoneal metastases, ascites, splenomegaly and cholestatic hepatitis
Description: A patient was diagnosed as having stomach neoplasm for more than two years (adenocarcinoma of moderate differentiation degree).
A decision was taken to apply GSSG drug form. The drug was injected parenterally (intramuscularly and intravenously), and additionally, the drug form was used via local injections around the tumor tissue through an endoscope. An average doses which were used for intramuscular and intravenous injections—0.1-0.5 mg/kg, and for local injections—up to 50 mg in situ. Parenteral injections of the drug were applied every other day, b.i.d. (intravenous injections at the morning, and intramuscular ones at the evening), during three weeks, and after that, two times a week during four weeks. The drug introduction through the endoscope was performed once in seven days.
The tumor was solid-like type. Stomach walls were rigid. Histology examination defined the tumor as a moderate degree differentiation adenocarcinoma. […] The drug was introduced according to the identical regime: parenterally (intramuscularly and intravenously), and additionally, the drug form was introduced via local injections around the tumor tissue through an endoscope. An average doses which were used for intramuscular and intravenous injections—0.1-0.5 mg/kg, and for local injections—up to 50 mg in situ. Parenteral injections of the drug were applied every other day, b.i.d. (intravenous injections at the morning, and intramuscular ones at the evening), during three weeks, and after that, two times in a week during four weeks. The drug introduction through the endoscope was performed once in seven days.

[1] = system: mice irradiated in a dose of 1 Gy; details: 5 mg/kg intraperitoneally daily for seven days, 8th day
Description: The study was designed to evaluate efficacy of seven-day daily administration of the test articles (with the dosing started two hours post-exposure) on the capability of the splenocytes from mice exposed to radiation to produce interleukin-1 (IL-1 α,b); interleukin-2 (IL-2); interleukin-3 (IL-3); interleukin-4 (IL-4); interleukin-6 (IL-6), interleukin-8 (IL-8); interleukin-10 (IL-10); interleukin-12 (IL-12); tumor necrosis factor-α, g (TNF-α, g), interferon-α, g (IFN-α,) and G-CSF, M-CSF, GM-CSF in vitro. In addition, the blood leukocyte and lymphocyte counts and the spleen and bone marrow cellularity (karyocyte count), as we well as splenic and medullary colony-stimulating capacity, were determined at the 8th day post-exposure.
Male CBA mice (18 to 20 g body weight) were irradiated with single dose of 180 kV X-rays filtered with 0.5 mm Cu (at 15 mA, distance—70 cm, duration two min. and 28 sec.). The total absorbed dose comprised approximately 1 Gy. […]
Additionally, hemopoietic colony-formation ability of spleen and bone marrow cells was assessed by the method of colony-forming unit (CFU) direct count in the spleens of irradiated singenic CBA mice receiving intravenously spleen or bone marrow cells obtained from animals of control or test groups.

[2] = system: human peripheral blood mononuclear leukocytes; details: 0.5-5000 mg/mL, ConA, 24 hours
Description: Oxidized glutathione (GSSG) as well as a structural analog thereof, which is a hexapeptide with a stabilized disulfide bond, were evaluated for their effect on cytokine production by human peripheral blood mononuclear leukocytes in vitro.
The leukocytic cytokine production was triggered by adding a mitogen, concanavalin A (ConA) to the cell culture immediately after introducing the test substances. In 24 hours of the cellular exposure to ConA and the test articles, the culture supernatants were sampled and stored until cytokine determination at −70° C. […]
Each concentration was established in no less than six wells by adding 50 mL of medium containing the appropriate quantity of the previously dissolved test articles. […]
Immediately after the test articles had been introduced into the cultures, 50 mL of medium containing ConA (Sigma, cell culture tested) in a quantity required for a final concentration of 4.0 mg/mL, was added to all the wells excepting three additional ones which served for evaluation of spontaneous ^3H-thymidine uptake (without ConA). […]
The filters were dried and their radioactivity (counts per minute, cpm) was determined using liquid scintillation counter, Betaplate 1205 (LKB). […]

normal human lymphocytes = test: Growth and apoptotic DNA degradation, normal human lymphocytes; details: 100 mg/mL, 24, 48 hours
Description: Venous blood of healthy volunteers was collected into heparinized test-tubes, which had been tested for endotoxin. A mononuclear fraction of blood leukocytes was obtained by centrifugation in ficoll-metrizoat gradient (Histopaque, Sigma). Cell concentration was adjusted to 2×10^6 cells per 1 ml of cell culture medium (RPMI 1640), containing 20 mM HEPES, 2 mM glutamine, 50 mg/mL gentamicin and 10% fetal calf serum. Cell viability was estimated by the Trypan blue exclusion method, then the cell suspension was placed into wells of 24- and 96-well microliter plates—250,000 cells per well.
(§1) The effect testing for the testing articles was performed 24, 48 hours after addition into the culture.
The analysis procedure involved the following: after 24-48 hour incubation there were calculated the total cell count and the dead cell count by the Trypan blue exclusion method; afterwards the cell suspension was centrifuged (at 12.000 g, in Eppendorf test-tubes during 10 min). The cell pellet was frozen and kept at −70° C. before the DNA separation. The DNA separation was conducted by Kirbi-Georgiyev phenol method. […] Then it was diluted in 10 mL of the A buffer; the DNA amount was determined by Dishe method and electrophoresis was performed in 2% agarose gel (agarose with NA grade made by “Pharmacia LKB, Biotechnology Inc” (Austria) was used). […]

[3] = system: chronic viral hepatitis B (HBV); test: Patients with chronic viral hepatitis B; assay type: in vivo, human
Description: Previous treatment: from 17 Sep. 1997 the patient was administered with acyclovir during 21 days.

HL-60 myeloid line cells = test: Growth and apoptotic DNA degradation, HL-60 cells; details: 100 mg/mL
Description: The HL-60 myeloid line cells were grown in RPMI-1640 medium with addition of 10% fetal calf serum. Cultivation was carried out in closed flasks, the medium volume was 12 mL, it was replaced every four days.
as §1
The analysis procedure involved the following: after 24-48 hour incubation there were calculated the total cell count and the dead cell count by the Trypan blue exclusion method; afterwards the cell suspension was centrifuged (at 12.000 g, in Eppendorf test-tubes during 10 min).
The HL-60 cell culture is human cells of myeloluekosis origin defective in the p53 gene.

[4] = system: glutathione reductase, glutathione-peroxidase, glutathione-S-transferase, γ-glutamyl-transpeptidase; details: intravenous, 2 mg/kg
Description: In addition, the activity variation of the enzymes participating in GSSG metabolism was evaluated (glutathione reductase, glutathione-peroxidase, glutathione-S-transferase,γ-glutamyl-transpeptidase).
Activity of the enzymes participating in the GSSG metabolism (glutathione reductase: EC. 1.6.4.2; glutathione-peroxidase: EC. 1.11.1.9; glutathione-S-transferase: EC.2.5.1.18; g-glutamyl-transpeptidase: EC.2.3.2.2) were determined by the standard reagent kits produced by Boehringer Mannheim GmbH.

CP-treated mice = test: Cyclophosphamide-induced hemo- and immunodepression, murine model; details: CP 50 mg/kg; 5 mg/kg intraperitoneally daily for five days; day 8
Description: The study was designed to evaluate the effect of a five-day long administration of the test articles on the capability of the CP-treated murine splenocytes to produce interleukin-1 (IL-1 α,b); interleukin-2 (IL-2); interleukin-3 (IL-3); interleukin-4 (IL-4); interleukin-6 (IL-6), interleukin-8 (IL-8); interleukin-10 (IL-10); interleukin-12 (IL-12); tumor necrosis factor-α, g (TNF-α, g), interferon-α, g (IFN-α, g) and G-CSF, M-CSF, GM-CSF in vitro. In addition, the blood leukocyte and lymphocyte count and the bone marrow cellularity (karyocyte count) were determined at eight days after CP administration. Some animals receiving CP were then challenged with sheep red blood cells (SRBC), and the humoral immune response to the antigen was evaluated.
Male CBA mice (180 to 200 g body weight) were given a single introperitoneal injection of CP in a dose of 50 mg/kg. Four groups of animals (with no less than 15 mice in each) were formed.
#3—animals receiving a single CP injection, which further were treated with the test article (GSSG dissolved in normal saline) in a dose of 5 mg/kg;
Twenty-four hours after the CP injection, five animals in each group were immunized with SRBC (10^7 cells in 0.5 mL of NS, intra-peritoneally).
Injections were performed during five days: once a day, daily. […]

[5] = two months after treatment start
[6] = patient No. 4, previous treatment during 21 days

| Molecule | tumor size decrease (stomach cancer; fibrogastrocopy data) [%] | hematology and blood chemistry indices (stomach cancer; [5]) | liver protrusion below the costal arch (stomach cancer; [5]) [cm] | tumor extent at fibrogastroscopy (stomach cancer; two months after treatment start, before: about 8 cm (GSSG course), about 6 cm (GSSG.Pt course)) [cm] | cytokine and hemopoietic factor production by splenocytes [1] | cytokine production by human mononuclear leukocytes [2] | normal cell proliferation (normal human lymphocytes) | liver protrusion beyond the costal arch after the treatment course ([3]; patient No. 3 (GSSG, before 2 cm), patient No. 4 (GSSG.Pt, before 2.5 cm)) [cm] | DNA electrophoresis (apoptotic ladder) (HL-60 myeloid line cells; 24 and 48 hours) | high molecular DNA in the apoptotic ladder (HL-60 myeloid line cells; FIG. 14) | dead HL-60 cell quantity (HL-60 myeloid line cells; Trypan blue exclusion) | activity of the enzymes participating in the thiol (glutathione) metabolism [4] | cytokine and hemopoietic factor production by splenocytes (CP-treated mice) | ALT after the course completion [3, 6] [mmol/h/L] | Hbs Ag degree [3, 6] | bilirubin after the course completion [3, 6] [mmoVL] |
| --- | --- | --- | --- | --- | --- | --- | --- | --- | --- | --- | --- | --- | --- | --- | --- | --- |
| bis-(γ-L-glutamyl)-L-cysteinyl-bis-glycine [GSSG] | 40 | substantial improvement of hematology and blood chemistry indices | 3 | 4.8 | less significant effect | statistically significant and dose-dependent stimulation of the cytokine production | stimulated the normal cell proliferation | 0.5 | revealed the DNA oligonucleosomic degradation | contained considerable amount of the high molecular DNA | reliably lower than the one after the GSSG.Pt effect | increases approximately two times the activity | only exiguous stimulating effect |  |  |  |
| Nc1nc2c(ncn2COCCO)c(=O)[nH]1 [acyclovir] |  |  |  |  |  |  |  |  |  |  |  |  |  | 2.1 | did not change | 32 |
